Assay results as given in PubChem BioAssay AID330 (DTP/NCI, 2004).
Where “and” joins values, the source holds several entries; their conditions need not be identical. Equal values may be shown once. Toxic doses and inconclusive results are not listed. How the source made its calls: active means survival T/C of 150% or more; inactive means T/C below 125% in these data.

Tested on: P388 leukemia ip, CD2F1 mice, survival T/C
Experiment: NCI In Vivo Anticancer Drug Screen. Data for tumor model P388 Leukemia (intraperitoneal) in CD2F1 (CDF1) mice
Settings: endpoint: median survival time, higher = longer survival
Method in brief: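 Mice carrying the transplanted tumor received test compound or vehicle. Survival was recorded in each group, and the value is the treated-group measurement divided by that of the vehicle-treated control group.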

[1] = dose: 50.0 mg/kg/injection, schedule: Q01DX009 (ip), vehicle: saline with Tween-80
[2] = dose: 100.0 mg/kg/injection, schedule: Q01DX009 (ip), vehicle: saline with Tween-80
[3] = dose: 12.5 mg/kg/injection, schedule: Q01DX005 (ip), vehicle: saline with Tween-80
[4] = dose: 50.0 mg/kg/injection, schedule: Q01DX005 (ip), vehicle: saline with Tween-80
[5] = dose: 200.0 mg/kg/injection, schedule: Q01DX005 (ip), vehicle: saline with Tween-80
[6] = dose: 60.0 mg/kg/injection, schedule: Q01DX005 (ip), vehicle: saline with Tween-80
[7] = dose: 120.0 mg/kg/injection, schedule: Q01DX005 (ip), vehicle: saline with Tween-80
[8] = dose: 240.0 mg/kg/injection, schedule: Q01DX005 (ip), vehicle: saline with Tween-80
[9] = dose: 50.0 mg/kg/injection, schedule: Q01DX009 (ip), vehicle: Klucel (hydroxypropylcellulose) (HPC)
[10] = dose: 200.0 mg/kg/injection, schedule: Q01DX009 (ip), vehicle: Klucel (hydroxypropylcellulose) (HPC)

Measured: T/C

O=c1[nH]c(=O)n2c(c1-c1ccccc1)OC(CBr)C2 (stereo unspecified)
inactive: [1] 98 % of control | [2] 98 % of control | dose: 200.0 mg/kg/injection, schedule: Q01DX009 (ip), vehicle: saline with Tween-80 86 % of control

CNC(=O)n1c(N)nc(-c2ccccc2)c1-c1ccccc1
inactive: dose: 12.5 mg/kg/injection, schedule: Q04DX002 (ip), vehicle: saline with Tween-80 115 % of control | dose: 25.0 mg/kg/injection, schedule: Q04DX002 (ip), vehicle: saline with Tween-80 115 % of control | dose: 50.0 mg/kg/injection, schedule: Q04DX002 (ip), vehicle: saline with Tween-80 117 % of control

Cc1ccc(S(=O)(=O)N/N=C/c2ccc(Cl)cc2)cc1
inactive: [3] 102 % of control | dose: 25.0 mg/kg/injection, schedule: Q01DX005 (ip), vehicle: saline with Tween-80 104 % of control and 108 % of control | [4] 100 % of control and 106 % of control and 107 % of control | [5] 121 % of control

C/C(=N\NC(=S)N1CCN(c2ccccn2)CC1)c1cccc2cccnc12
inactive: [4] 103 % of control | dose: 100.0 mg/kg/injection, schedule: Q01DX005 (ip), vehicle: saline with Tween-80 106 % of control | [5] 110 % of control

CC(O)C(=O)N(C)CCCO (stereo unspecified)
inactive: dose: 50.0 mg/kg/injection, schedule: Q01DX005 (ip), vehicle: saline 92 % of control | dose: 100.0 mg/kg/injection, schedule: Q01DX005 (ip), vehicle: saline 101 % of control | dose: 200.0 mg/kg/injection, schedule: Q01DX005 (ip), vehicle: saline 100 % of control

CN1CCc2nc[nH]c2C1
inactive: dose: 100.0 mg/kg/injection, schedule: Q04DX002 (ip), vehicle: saline 97 % of control | dose: 200.0 mg/kg/injection, schedule: Q04DX002 (ip), vehicle: saline 101 % of control | dose: 400.0 mg/kg/injection, schedule: Q04DX002 (ip), vehicle: saline 99 % of control

Oc1ccc(O)c(-n2nc3ccccc3n2)c1
inactive: [6] 104 % of control | [7] 103 % of control | [8] 100 % of control

COc1c(C)cc(C)c(CO)c1-c1c(CO)c(C)cc(C)c1OC
inactive: dose: 100.0 mg/kg/injection, schedule: Q01DX001 (ip), vehicle: Klucel (hydroxypropylcellulose) (HPC) 99 % of control | dose: 200.0 mg/kg/injection, schedule: Q01DX001 (ip), vehicle: Klucel (hydroxypropylcellulose) (HPC) 101 % of control | dose: 400.0 mg/kg/injection, schedule: Q01DX001 (ip), vehicle: Klucel (hydroxypropylcellulose) (HPC) 99 % of control

COC(=O)CCCCc1ccc(CCCC(=O)OC)c2ccccc12
inactive: dose: 50.0 mg/kg/injection, schedule: Q01DX009 (ip), vehicle: other 102 % of control | dose: 100.0 mg/kg/injection, schedule: Q01DX009 (ip), vehicle: other 102 % of control | dose: 200.0 mg/kg/injection, schedule: Q01DX009 (ip), vehicle: other 105 % of control

Nc1cc2c3c(cccc3c1)C(=O)N(CCN1CCCC1)C2=O
active: dose: 12.1 mg/kg/injection, schedule: Q01DX009 (ip), vehicle: saline with Tween-80 163 % of control | dose: 24.2 mg/kg/injection, schedule: Q01DX009 (ip), vehicle: saline with Tween-80 160 % of control and 180 % of control | [1] 173 % of control | [2] 189 % of control
inactive: dose: 6.25 mg/kg/injection, schedule: Q01DX009 (ip), vehicle: saline with Tween-80 102 % of control | dose: 6.5 mg/kg/injection, schedule: Q01DX009 (ip), vehicle: saline with Tween-80 122 % of control | dose: 12.5 mg/kg/injection, schedule: Q01DX009 (ip), vehicle: saline with Tween-80 110 % of control | dose: 48.39 mg/kg/injection, schedule: Q01DX009 (ip), vehicle: saline with Tween-80 86 % of control and 96 % of control

N#C/C(N)=C(\C#N)N=Cc1ccc(-c2ccccc2)cc1
inactive: dose: 100.0 mg/kg/injection, schedule: Q01DX001 (ip), vehicle: saline with Tween-80 90 % of control | dose: 200.0 mg/kg/injection, schedule: Q01DX001 (ip), vehicle: saline with Tween-80 90 % of control | dose: 400.0 mg/kg/injection, schedule: Q01DX001 (ip), vehicle: saline with Tween-80 86 % of control

CCCCCCCc1cc(=O)[nH]c(=S)[nH]1
inactive: dose: 60.0 mg/kg/injection, schedule: Q01DX005 (ip), vehicle: Klucel (hydroxypropylcellulose) (HPC) 96 % of control | dose: 120.0 mg/kg/injection, schedule: Q01DX005 (ip), vehicle: Klucel (hydroxypropylcellulose) (HPC) 95 % of control | dose: 240.0 mg/kg/injection, schedule: Q01DX005 (ip), vehicle: Klucel (hydroxypropylcellulose) (HPC) 89 % of control

C=CC(C)(C)/C=C/C=O
inactive: [6] 97 % of control | [7] 92 % of control | [8] 104 % of control

COc1cccc2c1C(=N)c1c(O)c3c(c(O)c1C2=O)CC(O)(C(=O)CO)CC3OC1CC(N2CCOCC2)C(O)C(C)O1 (stereo unspecified)
inactive: dose: 0.13 mg/kg/injection, schedule: Q04DX003 (ip), vehicle: water 101 % of control and 104 % of control and 98 % of control | dose: 0.25 mg/kg/injection, schedule: Q04DX003 (ip), vehicle: water 101 % of control and 108 % of control and 116 % of control | dose: 0.5 mg/kg/injection, schedule: Q04DX003 (ip), vehicle: water 104 % of control and 107 % of control | dose: 0.78 mg/kg/injection, schedule: Q04DX003 (ip), vehicle: distilled water + Tween-80 105 % of control | dose: 1.0 mg/kg/injection, schedule: Q04DX003 (ip), vehicle: water 99 % of control and 104 % of control and 107 % of control | dose: 1.56 mg/kg/injection, schedule: Q04DX003 (ip), vehicle: distilled water + Tween-80 101 % of control | dose: 3.12 mg/kg/injection, schedule: Q04DX003 (ip), vehicle: distilled water + Tween-80 99 % of control

O=C1Cc2ccccc2CC1CC1Cc2ccccc2CC1=O (stereo unspecified)
inactive: [9] 87 % of control | [10] 91 % of control

CN=C1NC(=O)C(C(C)c2c[nH]c3ccccc23)S1 (stereo unspecified)
inactive: [9] 111 % of control | dose: 100.0 mg/kg/injection, schedule: Q01DX009 (ip), vehicle: Klucel (hydroxypropylcellulose) (HPC) 111 % of control | [10] 113 % of control

O=C1c2ccccc2C(=O)N1CCc1ncc[nH]1
inactive: [6] 99 % of control | [7] 99 % of control | [8] 100 % of control

O=[N+]([O-])c1cc2[nH]cnc2c([N+](=O)[O-])c1N1CCCCC1
inactive: dose: 25.0 mg/kg/injection, schedule: Q04DX003 (ip), vehicle: saline with Tween-80 92 % of control | dose: 50.0 mg/kg/injection, schedule: Q04DX003 (ip), vehicle: saline with Tween-80 92 % of control | dose: 100.0 mg/kg/injection, schedule: Q04DX003 (ip), vehicle: saline with Tween-80 100 % of control

CC(C)=CC[P+](CP(c1ccccc1)c1ccccc1)(c1ccccc1)c1ccccc1
inactive: dose: 3.12 mg/kg/injection, schedule: Q01DX005 (ip), vehicle: saline with Tween-80 107 % of control | dose: 6.25 mg/kg/injection, schedule: Q01DX005 (ip), vehicle: saline with Tween-80 105 % of control | [3] 89 % of control

NC1C(=O)Nc2ccccc21 (stereo unspecified)
inactive: dose: 60.0 mg/kg/injection, schedule: Q01DX005 (ip), vehicle: saline 95 % of control | dose: 120.0 mg/kg/injection, schedule: Q01DX005 (ip), vehicle: saline 103 % of control

CSC(SC)c1cc(-c2c(Cl)cccc2Cl)no1
inactive: [6] 102 % of control | [7] 103 % of control | [8] 103 % of control
